Assays:
Assay in all cases: relative viability (nuclei count vs DMSO), 5 days (fraction); higher = more cells survive
[1] = system: BEN
Method in brief: (§1)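 Five library-drug doses in √10 steps were combined with a fixed anchor-drug dose, or a single drug was given alone, by pin tool to lung cancer cell lines in 1536-well plates the day after seeding. Nuclei were stained and counted after 5 days. Relative viability is the nuclei count in treated wells over that in vehicle wells, taken as the median of duplicate plates.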

[2] = system: CAL-12T
Method in brief: as §1

[3] = system: COR-L 105
Method in brief: as §1

[4] = system: COR-L23
Method in brief: as §1

[5] = system: HARA
Method in brief: as §1

[6] = system: HCC-15
Method in brief: as §1

[7] = system: HCC-366
Method in brief: as §1

[8] = system: HCC-827
Method in brief: as §1

[9] = system: HOP-62
Method in brief: as §1

[10] = system: LC-2-ad
Method in brief: as §1

[11] = system: LCLC-97TM1
Method in brief: as §1

`O=C(O)CCCCC(CCSCc1ccccc1)SCc1ccccc1` (centres undefined) [CPI-613] + COc1cc2c(Oc3ccc(NC(=O)C4(C(=O)Nc5ccc(F)cc5)CC4)cc3F)ccnc2cc1OCCCN1CCOCC1 [Foretinib] (partner 0.25 µM) was tested, and the relative viability ([1]; first compound 5 µM) was 0.728, the relative viability ([1]; first compound 15.81 µM) was 0.443 and the relative viability ([1]; first compound 50 µM) was 0.602. The relative viability ([1]; first compound 158.11 µM) was 0.499, the relative viability ([1]; first compound 500 µM) was 0.508 and the relative viability ([2]; first compound 5 µM) was 0.981. The relative viability ([2]; first compound 15.81 µM) was 0.89, the relative viability ([2]; first compound 50 µM) was 1.11 and the relative viability ([2]; first compound 158.11 µM) was 0.142. It also gave a relative viability ([2]; first compound 500 µM) of 0.015, a relative viability ([3]; first compound 5 µM) of 1.11 and a relative viability ([3]; first compound 15.81 µM) of 1.03. The relative viability ([3]; first compound 50 µM) was 1.02, the relative viability ([3]; first compound 158.11 µM) was 0.508 and the relative viability ([3]; first compound 500 µM) was 0.16. The relative viability ([4]; first compound 5 µM) was 0.983, the relative viability ([4]; first compound 15.81 µM) was 0.995 and the relative viability ([4]; first compound 50 µM) was 0.714. It also gave a relative viability ([4]; first compound 158.11 µM) of 0.614, a relative viability ([4]; first compound 500 µM) of 0.0368 and a relative viability ([5]; first compound 15.81 µM) of 0.778. It also gave a relative viability ([5]; first compound 50 µM) of 0.923, a relative viability ([5]; first compound 158.11 µM) of 0.51 and a relative viability ([5]; first compound 500 µM) of 0.0068. It also gave a relative viability ([6]; first compound 5 µM) of 0.974, a relative viability ([6]; first compound 15.81 µM) of 1 and a relative viability ([6]; first compound 50 µM) of 1.01. For the same compound, the relative viability ([6]; first compound 158.11 µM) was 0.236, the relative viability ([6]; first compound 500 µM) was 0.039 and the relative viability ([7]; first compound 5 µM) was 0.963. The relative viability ([7]; first compound 15.81 µM) was 0.962, the relative viability ([7]; first compound 50 µM) was 0.989 and the relative viability ([7]; first compound 158.11 µM) was 0.322. It also gave a relative viability ([7]; first compound 500 µM) of 0.0079, a relative viability ([8]; first compound 5 µM) of 1.04 and a relative viability ([8]; first compound 15.81 µM) of 1.02. It also gave a relative viability ([8]; first compound 50 µM) of 1, a relative viability ([8]; first compound 158.11 µM) of 0.416 and a relative viability ([8]; first compound 500 µM) of 0.312. The relative viability ([9]; first compound 5 µM) was 1.06, the relative viability ([9]; first compound 15.81 µM) was 1.04 and the relative viability ([9]; first compound 50 µM) was 1.11. For the same compound, the relative viability ([9]; first compound 158.11 µM) was 0.39, the relative viability ([9]; first compound 500 µM) was 0.231 and the relative viability ([10]; first compound 5 µM) was 0.842. The relative viability ([10]; first compound 15.81 µM) was 0.796, the relative viability ([10]; first compound 50 µM) was 0.957 and the relative viability ([10]; first compound 158.11 µM) was 0.434. It also gave a relative viability ([10]; first compound 500 µM) of 0.0582, a relative viability ([11]; first compound 5 µM) of 0.95 and a relative viability ([11]; first compound 15.81 µM) of 0.935. The relative viability ([11]; first compound 50 µM) was 0.926, the relative viability ([11]; first compound 158.11 µM) was 0.324 and the relative viability ([11]; first compound 500 µM) was 0.0466.

From the supplement of paper PMC10307832
